From patent US10335409B2 (priority 2012, dated 2019)

How the values were obtained:
[1] = target: HCV NS3 protease domain genotype 1b (Hepatitis C virus genotype 1b (isolate Con1), UniProt Q9WMX2, E1202G); assay: Ki determination, NS3 protease genotype 1b (fluorogenic depsipeptide substrate); assay type: biochemical; conditions: 50 pM enzyme, NS4A peptide
[2] = target: HCV NS3 protease domain genotype 3a (Hepatitis C virus genotype 3a, UniProt Q81258); assay: Ki determination, NS3 protease genotype 3a (fluorogenic depsipeptide substrate); assay type: biochemical; conditions: 200 pM enzyme, NS4A peptide
How it was run: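 The NS3 protease domain (aa 1-181) with 20 μM NS4A peptide was used at 50 pM with 4 μM substrate (1b) or at 200 pM with 2 μM substrate (3a). Inhibitors (100 nM-5 pM) were pre-incubated 1 h at room temperature in HEPES/glycerol/DTT buffer with 10% DMSO. Steady-state rates (90-120 min) gave Ki via the Morrison equation, corrected for active enzyme and [S]/Km.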

[3] = test system: genotype 1a (H77) stable HCV replicon in Huh-7-derived cells; assay: Stable subgenomic HCV replicon EC50, genotype 1a (Renilla luciferase); assay type: cell-based, hepatitis C virus; conditions: Hepatitis C virus, stable replicon genotype 1a, 72 h, read-out: EC50 1A RLUC
How it was run: (§1)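 Compounds, three-fold diluted, were applied to Huh-7-derived cells harbouring luciferase replicons (genotype 1a H77, 1b Con1, 2a JFH-1, 4a ED43, with strain-specific adaptive mutations). Seventy-two hours later, intracellular replication was gauged by Renilla luciferase activity and EC50 derived by regression.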

[4] = test system: genotype 1b (Con1) stable HCV replicon in Huh-7-derived cells; assay: Stable subgenomic HCV replicon EC50, genotype 1b (Renilla luciferase); assay type: cell-based, hepatitis C virus; conditions: Hepatitis C virus, stable replicon genotype 1b, 72 h, read-out: EC50 1B RLUC
How it was run: as §1

[5] = test system: genotype 2a (JFH-1) stable HCV replicon in Huh-7-derived cells; assay: Stable subgenomic HCV replicon EC50, genotype 2a (Renilla luciferase); assay type: cell-based, hepatitis C virus; conditions: Hepatitis C virus, stable replicon genotype 2a, 72 h, read-out: EC50 2A RLUC
How it was run: as §1

[6] = test system: genotype 3a (S52) stable HCV replicon in Huh-7-derived cells; assay: Stable subgenomic HCV replicon EC50, genotype 3a (Renilla luciferase); assay type: cell-based, hepatitis C virus; conditions: Hepatitis C virus, 72 h, read-out: EC50 3A RLUC
[7] = test system: genotype 4a (ED43) stable HCV replicon in Huh-7-derived cells; assay: Stable subgenomic HCV replicon EC50, genotype 4a (Renilla luciferase); assay type: cell-based, hepatitis C virus; conditions: Hepatitis C virus, 72 h, read-out: EC50 4A RLUC
How it was run: as §1

[8] = test system: genotype 3a (S52) wild type transient HCV replicon in Huh-7-derived cells; assay: Transient-transfected HCV replicon EC50, genotype 3a wild type; assay type: cell-based, hepatitis C virus; conditions: Hepatitis C virus; transient-transfected replicon genotype 3a wild type, 72 h; read-out: EC50 3A WT
[9] = test system: genotype 1a (H77) wild type transient HCV replicon in Huh-7-derived cells; assay: Transient-transfected HCV replicon EC50, genotype 1a wild type; assay type: cell-based, hepatitis C virus; conditions: Hepatitis C virus, 72 h, transient-transfected replicon genotype 1a wild type, read-out: EC50 1A WT
[10] = test system: genotype 1a NS3/4a protease inhibitor resistant variant R155K transient HCV replicon in Huh-7-derived cells; assay: Transient-transfected HCV replicon EC50, genotype 1a R155K; assay type: cell-based, hepatitis C virus; conditions: Hepatitis C virus, 72 h, read-out: EC50 1A R155K, transient-transfected replicon genotype 1a R155K resistant variant, 72 h
[11] = test system: genotype 1b (Con1) wild type transient HCV replicon in Huh-7-derived cells; assay: Transient-transfected HCV replicon EC50, genotype 1b wild type; assay type: cell-based, hepatitis C virus; conditions: Hepatitis C virus, 72 h, transient-transfected replicon genotype 1b wild type, read-out: EC50 1B WT
[12] = test system: genotype 1b NS3/4a protease inhibitor resistant variant D168A transient HCV replicon in Huh-7-derived cells; assay: Transient-transfected HCV replicon EC50, genotype 1b D168A; assay type: cell-based, hepatitis C virus; conditions: Hepatitis C virus, 72 h, read-out: EC50 1B D168A, transient-transfected replicon genotype 1b D168A resistant variant, 72 h

Sequence of HCV NS3 protease domain genotype 1b (Q9WMX2 1027-1208 E1202G): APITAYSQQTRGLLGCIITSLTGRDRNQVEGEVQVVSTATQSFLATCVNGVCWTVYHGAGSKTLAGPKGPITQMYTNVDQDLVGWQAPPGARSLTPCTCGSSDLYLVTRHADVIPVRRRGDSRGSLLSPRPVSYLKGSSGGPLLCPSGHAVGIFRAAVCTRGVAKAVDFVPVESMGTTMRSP
Sequence of HCV NS3 protease domain genotype 3a (Q81258 whole entry, looked up, the tested form may be a part): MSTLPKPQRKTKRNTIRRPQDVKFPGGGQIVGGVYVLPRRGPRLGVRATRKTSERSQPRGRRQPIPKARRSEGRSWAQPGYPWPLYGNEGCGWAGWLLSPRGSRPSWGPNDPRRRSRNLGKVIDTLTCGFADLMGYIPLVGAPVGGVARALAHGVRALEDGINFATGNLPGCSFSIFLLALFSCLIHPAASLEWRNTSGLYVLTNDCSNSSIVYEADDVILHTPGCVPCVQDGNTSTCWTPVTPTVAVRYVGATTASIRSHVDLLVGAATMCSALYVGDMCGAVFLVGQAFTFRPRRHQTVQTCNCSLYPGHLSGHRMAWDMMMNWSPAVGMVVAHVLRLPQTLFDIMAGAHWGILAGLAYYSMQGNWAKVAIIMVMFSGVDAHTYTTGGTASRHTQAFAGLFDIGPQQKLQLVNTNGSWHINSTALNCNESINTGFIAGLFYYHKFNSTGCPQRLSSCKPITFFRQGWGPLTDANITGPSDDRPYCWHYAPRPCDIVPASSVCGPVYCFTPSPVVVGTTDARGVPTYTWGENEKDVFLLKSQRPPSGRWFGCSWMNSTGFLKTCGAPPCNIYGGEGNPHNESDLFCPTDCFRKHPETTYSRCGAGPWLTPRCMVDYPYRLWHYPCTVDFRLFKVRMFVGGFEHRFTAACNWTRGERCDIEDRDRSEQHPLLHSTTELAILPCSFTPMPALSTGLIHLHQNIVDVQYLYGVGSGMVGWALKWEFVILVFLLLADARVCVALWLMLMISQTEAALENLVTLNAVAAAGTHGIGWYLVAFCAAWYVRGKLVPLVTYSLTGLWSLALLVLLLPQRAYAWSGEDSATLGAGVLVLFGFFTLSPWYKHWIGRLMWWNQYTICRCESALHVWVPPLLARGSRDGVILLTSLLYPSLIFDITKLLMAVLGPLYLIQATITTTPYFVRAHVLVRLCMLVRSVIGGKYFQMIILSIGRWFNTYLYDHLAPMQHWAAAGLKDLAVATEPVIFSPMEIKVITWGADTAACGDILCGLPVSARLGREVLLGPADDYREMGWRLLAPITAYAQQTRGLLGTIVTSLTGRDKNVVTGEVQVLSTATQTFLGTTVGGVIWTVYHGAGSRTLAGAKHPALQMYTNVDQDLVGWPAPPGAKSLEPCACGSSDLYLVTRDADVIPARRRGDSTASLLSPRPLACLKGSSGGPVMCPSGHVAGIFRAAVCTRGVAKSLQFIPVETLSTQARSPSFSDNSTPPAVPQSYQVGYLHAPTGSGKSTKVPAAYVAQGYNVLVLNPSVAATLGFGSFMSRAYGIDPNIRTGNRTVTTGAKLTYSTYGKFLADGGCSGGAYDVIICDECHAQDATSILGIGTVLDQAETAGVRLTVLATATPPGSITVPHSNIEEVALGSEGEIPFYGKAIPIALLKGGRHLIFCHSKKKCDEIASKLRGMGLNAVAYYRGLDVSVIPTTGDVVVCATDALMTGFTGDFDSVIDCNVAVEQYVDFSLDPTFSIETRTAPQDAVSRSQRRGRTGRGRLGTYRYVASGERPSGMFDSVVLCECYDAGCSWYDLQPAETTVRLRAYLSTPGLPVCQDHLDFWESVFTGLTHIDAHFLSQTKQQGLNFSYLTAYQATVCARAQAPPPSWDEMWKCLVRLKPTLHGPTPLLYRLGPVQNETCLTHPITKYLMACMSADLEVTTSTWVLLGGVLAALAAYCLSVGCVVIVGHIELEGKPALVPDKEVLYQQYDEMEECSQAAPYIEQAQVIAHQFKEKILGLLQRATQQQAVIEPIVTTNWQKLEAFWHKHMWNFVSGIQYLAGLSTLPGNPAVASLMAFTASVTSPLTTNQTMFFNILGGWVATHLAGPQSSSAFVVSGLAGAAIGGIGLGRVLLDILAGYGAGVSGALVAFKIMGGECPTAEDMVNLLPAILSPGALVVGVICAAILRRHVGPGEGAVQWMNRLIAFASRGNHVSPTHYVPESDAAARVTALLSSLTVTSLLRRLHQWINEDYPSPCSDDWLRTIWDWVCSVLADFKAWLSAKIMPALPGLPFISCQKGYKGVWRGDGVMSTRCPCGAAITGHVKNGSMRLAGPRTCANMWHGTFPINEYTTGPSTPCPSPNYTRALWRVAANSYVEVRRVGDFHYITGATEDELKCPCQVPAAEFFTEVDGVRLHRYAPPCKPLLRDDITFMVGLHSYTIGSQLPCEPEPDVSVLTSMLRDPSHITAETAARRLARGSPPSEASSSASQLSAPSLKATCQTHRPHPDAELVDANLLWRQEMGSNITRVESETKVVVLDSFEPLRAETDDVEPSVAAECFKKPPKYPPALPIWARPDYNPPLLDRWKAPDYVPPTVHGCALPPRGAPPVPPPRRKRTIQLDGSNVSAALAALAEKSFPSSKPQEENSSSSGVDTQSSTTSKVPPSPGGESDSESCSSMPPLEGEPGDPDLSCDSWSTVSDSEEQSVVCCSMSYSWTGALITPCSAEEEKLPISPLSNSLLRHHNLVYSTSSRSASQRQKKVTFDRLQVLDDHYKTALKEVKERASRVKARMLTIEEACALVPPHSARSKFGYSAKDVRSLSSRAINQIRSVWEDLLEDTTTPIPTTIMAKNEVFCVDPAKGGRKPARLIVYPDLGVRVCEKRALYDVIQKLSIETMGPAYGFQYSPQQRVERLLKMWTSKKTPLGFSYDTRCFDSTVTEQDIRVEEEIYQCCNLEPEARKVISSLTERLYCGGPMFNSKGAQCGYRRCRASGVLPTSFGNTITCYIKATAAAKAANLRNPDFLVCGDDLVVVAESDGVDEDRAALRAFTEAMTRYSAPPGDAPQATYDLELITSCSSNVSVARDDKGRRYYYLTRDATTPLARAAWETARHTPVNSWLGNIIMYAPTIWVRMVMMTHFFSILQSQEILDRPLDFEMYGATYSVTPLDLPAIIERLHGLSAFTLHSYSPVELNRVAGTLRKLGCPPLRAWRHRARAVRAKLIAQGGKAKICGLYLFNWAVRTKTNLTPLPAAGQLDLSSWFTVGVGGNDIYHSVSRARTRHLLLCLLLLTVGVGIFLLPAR

Structure (SMILES)	Ki [1] [nM]	Ki [2] [nM]	EC50 [3] [nM]	EC50 [4] [nM]	EC50 [5] [nM]	EC50 [6] [nM]	EC50 [7] [nM]	EC50 [8] [nM]	EC50 [9] [nM]	EC50 [10] [nM]	EC50 [11] [nM]	EC50 [12] [nM]
C[C@@H]1[C@@H]2CN(C(=O)[C@H](C(C)(C)C)NC(=O)O[C@@H]3C[C@@H]4C[C@@H]4[C@H]3CCCCCc3nc4ccc(Cl)cc4nc3O2)[C@@H]1C(=O)N[C@]1(C(=O)NS(=O)(=O)C2CC2)C[C@H]1C(F)F [Example 79, (1aS,2aR,6S,9S,10S,11R,23aR,23bS)-6-tert-butyl-15-chloro-N-[(1R,2R)-1-[(cyclopropylsulfonyl)carbamoyl]-2-(difluoromethyl)cyclopropyl]-10-methyl-4,7-dioxo-1a,2,2a,4,5,6,7,10,11,19,20,21,22,23,23a,23b-hexadecahydro-1H,9H-8,11-methanocyclopropa[4′,5′]cyclopenta[1′,2′:18,19][1,10,3,6]dioxadiazacyclononadecino[11,12-b]quinoxaline-9-carboxamide]	0.06	0.06	7	5.8	4.1	71	5.6	9.2	6.1	7.1	3	11
CC[C@@H]1[C@@H]2CN(C(=O)[C@H](C(C)(C)C)NC(=O)O[C@@H]3C[C@H]3CCCCC(F)(F)c3nc4ccc(OC(F)(F)F)cc4nc3O2)[C@@H]1C(=O)N[C@]1(C(=O)NS(=O)(=O)C2(C)CC2)C[C@H]1C(F)F [Example 83, (1aR,5S,8S,9S,10R,22aR)-5-tert-butyl-N-[(1R,2R)-2-(difluoromethyl)-1-{[(1-methylcyclopropyl)sulfonyl]carbamoyl}cyclopropyl]-9-ethyl-18,18-difluoro-3,6-dioxo-14-(trifluoromethoxy)-1,1a,3,4,5,6,9,10,18,19,20,21,22,22a-tetradecahydro-8H-7,10-methanocyclopropa[18,19][1,10,3,6]dioxadiazacyclononadecino[11,12-b]quinoxaline-8-carboxamide]	0.09	0.48	62	58	19	1220	42	300	62	133	27	202
C[C@@H]1[C@@H]2CN(C(=O)[C@H](C(C)(C)C)NC(=O)O[C@@H]3C[C@@H]4C[C@@H]4[C@H]3CCCCCc3nc4ccc(F)cc4nc3O2)[C@@H]1C(=O)N[C@]1(C(=O)NS(=O)(=O)C2(C)CC2)C[C@H]1C(F)F [Example 86, (1aS,2aR,6S,9S,10S,11R,23aR,23bS)-6-tert-butyl-N-[(1R,2R)-2-(difluoromethyl)-1-{[(1-methylcyclopropyl)sulfonyl]carbamoyl}cyclopropyl]-15-fluoro-10-methyl-4,7-dioxo-1a,2,2a,4,5,6,7,10,11,19,20,21,22,23,23a,23b-hexadecahydro-1H,9H-8,11-methanocyclopropa[4′,5′]cyclopenta[1′,2′:18,19][1,10,3,6]dioxadiazacyclononadecino[11,12-b]quinoxaline-9-carboxamide]	0.04	0.07	5.6	5.5	5.9	42	5.7	16	4	3.7	3.4	10
